Assay results reported in patent US12590111B2, “Flavonoid derivative for treating dental caries” (Mühlbauer Technology GmbH, priority 2019, dated 2026).

Legend:
[1] = target: T1, glucosyltransferase C of S. mutans (Streptococcus mutans serotype c, UniProt P13470); experiment: Inhibition of glucosyltransferase GtfC activity (fructose release, K-FRUGL kit); assay type: biochemical; conditions: for inhibition of glucosyltransferase C activity: 30 mM sucrose, pH 6.0, 1 h, 37° C.; for remaining enzyme activity: normalized to solvent control, FIG. 2
T1 construct: purchased nzytech
Protocol: (§1) For this purpose, the test substance was resuspended in a DMSO/ethanol mixture (20/80%) and then diluted in the reaction mixture to the concentration to be tested (final concentration DMSO/ethanol 2/8%). The glucosyltransferase GtfC (0.3 μg, nzytech) was incubated in 100 mM potassium phosphate buffer, pH 6.0 with 30 mM sucrose for one hour at 37° C. in the presence of the test substances. As a positive control, the enzyme activity was measured in the presence of DMSO/ethanol (2/8%). […] For this purpose, the D-fructose and D-glucose assay kit from Megazyme (K-FRUGL) was used.
D-glucose and D-fructose are phosphorylated in the presence of adenosine-5-triphosphate (ATP) to glucose-6-phosphate (G-6-P) and fructose-6-phosphate (F-6-P) by the enzyme hexokinase (HK), producing adenosine 5′-diphosphate (ADP) (1), (2).
In the presence of the enzyme glucose-6-phosphate dehydrogenase (G6P-DH), G-6-P is oxidized to gluconate-6-phosphate by nicotinamide adenine dinucleotide (NADP^+). This produces reduced nicotinamide adenine dinucleotide phosphate (NADPH) (3).
The amount of NADPH formed in this reaction corresponds stoichiometrically to the amount of D-glucose. The absorption of NADPH is measured at 340 nm.
After completion of the reaction (3), F-6-P is converted to G-6-P by phosphoglucose isomerase (PGI) (4).
The G-6-P formed reacts in turn with NADP^+ to form gluconate-6-phosphate and NADPH, which leads to a further increase in absorption and correlates stoichiometrically with the amount of D-fructose.
(§2) 9 independent reaction batches were measured in triplicate and the enzyme activity was normalized to the solvent control.

[2] = Solubility in the GtfC reaction mixture; assay type: physicochemical; conditions: 6 mM; final DMSO/ethanol 2/8%
Protocol: as §1, §2

[3] = target: T2, GtfC enzyme activity of S. mutans (Streptococcus mutans serotype c, UniProt P13470); experiment: GtfC activity with flavonoid derivative bound to hydroxyapatite; assay type: biochemical; conditions: bound to HAP as in Example 4; activity in supernatant; FIG. 4
T2 construct: purchased nzytech
Protocol: ApiBisPhos UD was bound to HAP as described in Example 4 and then incubated with GtfC as described in Example 3. The HAP was then centrifuged off and the GtfC activity in the supernatant was then determined as described in Example 3. A similar procedure was followed with the further flavonoid derivative “ApiBisPhos EG” according to the invention. […] In other words, the further example of a flavonoid derivative according to the invention (“ApiBisPhos EG”) confirms the successful functioning of the present invention as the basis for achieving the advantage according to the invention based on the adhesion of the flavonoid derivative according to the invention to the tooth surface comprising hydroxyapatite, so that the flavonoid derivative can prevent or to a great extent inhibit the formation of biofilm causing dental diseases on the tooth surfaces treated with the flavonoid derivative in the long term.

S. mutans biofilm = S. mutans biofilm formation on saliva-coated hydroxyapatite disks (crystal violet); assay type: cell-based; conditions: HAP disks pretreated with 60 μl 10 mM, 60 min; 24 h culture at 37° C.; relative to solvent control
Protocol: In this example, it was investigated whether “ApibisPhos UD” has a significant influence on S. mutans-mediated biofilm formation using hydroxyapatite discs coated with saliva under conditions simulating the oral cavity.
For this purpose, sterile hydroxyapatite disks (Clarkson Chromatography Products Inc., Ø5 mm×2 mm) were coated with saliva (Lee Biosolutions, human pooled donors) as substrate for 60 minutes and then incubated with ApiBisPhos UD (60 μl; 10 mM in DMSO/ethanol mixture, 20/80%) for 60 minutes. After washing twice with DPBS, these pretreated hydroxyapatite disks were coated with S. mutans preculture (1.5×10^8 bacteria per ml in Balmelli broth) and cultured aerobically at 37° C. for 24 hours. The grown biofilm was fixed with 100% ethanol (30 min, 25° C.), stained with 0.06% (w/v) crystal violet (60 min, 25° C.) and the dye eluted with 30% (v/v) acetic acid quantified by measuring the absorbance at 570 nm. The measured values were set in relation to the solvent control (DMSO/ethanol mixture; 20/80%), i.e. without the use of ApibisPhos UD.

[4] = pH 6, read-out: inhibition of glucosyltransferase C activity

T1 sequence (P13470 35-1455): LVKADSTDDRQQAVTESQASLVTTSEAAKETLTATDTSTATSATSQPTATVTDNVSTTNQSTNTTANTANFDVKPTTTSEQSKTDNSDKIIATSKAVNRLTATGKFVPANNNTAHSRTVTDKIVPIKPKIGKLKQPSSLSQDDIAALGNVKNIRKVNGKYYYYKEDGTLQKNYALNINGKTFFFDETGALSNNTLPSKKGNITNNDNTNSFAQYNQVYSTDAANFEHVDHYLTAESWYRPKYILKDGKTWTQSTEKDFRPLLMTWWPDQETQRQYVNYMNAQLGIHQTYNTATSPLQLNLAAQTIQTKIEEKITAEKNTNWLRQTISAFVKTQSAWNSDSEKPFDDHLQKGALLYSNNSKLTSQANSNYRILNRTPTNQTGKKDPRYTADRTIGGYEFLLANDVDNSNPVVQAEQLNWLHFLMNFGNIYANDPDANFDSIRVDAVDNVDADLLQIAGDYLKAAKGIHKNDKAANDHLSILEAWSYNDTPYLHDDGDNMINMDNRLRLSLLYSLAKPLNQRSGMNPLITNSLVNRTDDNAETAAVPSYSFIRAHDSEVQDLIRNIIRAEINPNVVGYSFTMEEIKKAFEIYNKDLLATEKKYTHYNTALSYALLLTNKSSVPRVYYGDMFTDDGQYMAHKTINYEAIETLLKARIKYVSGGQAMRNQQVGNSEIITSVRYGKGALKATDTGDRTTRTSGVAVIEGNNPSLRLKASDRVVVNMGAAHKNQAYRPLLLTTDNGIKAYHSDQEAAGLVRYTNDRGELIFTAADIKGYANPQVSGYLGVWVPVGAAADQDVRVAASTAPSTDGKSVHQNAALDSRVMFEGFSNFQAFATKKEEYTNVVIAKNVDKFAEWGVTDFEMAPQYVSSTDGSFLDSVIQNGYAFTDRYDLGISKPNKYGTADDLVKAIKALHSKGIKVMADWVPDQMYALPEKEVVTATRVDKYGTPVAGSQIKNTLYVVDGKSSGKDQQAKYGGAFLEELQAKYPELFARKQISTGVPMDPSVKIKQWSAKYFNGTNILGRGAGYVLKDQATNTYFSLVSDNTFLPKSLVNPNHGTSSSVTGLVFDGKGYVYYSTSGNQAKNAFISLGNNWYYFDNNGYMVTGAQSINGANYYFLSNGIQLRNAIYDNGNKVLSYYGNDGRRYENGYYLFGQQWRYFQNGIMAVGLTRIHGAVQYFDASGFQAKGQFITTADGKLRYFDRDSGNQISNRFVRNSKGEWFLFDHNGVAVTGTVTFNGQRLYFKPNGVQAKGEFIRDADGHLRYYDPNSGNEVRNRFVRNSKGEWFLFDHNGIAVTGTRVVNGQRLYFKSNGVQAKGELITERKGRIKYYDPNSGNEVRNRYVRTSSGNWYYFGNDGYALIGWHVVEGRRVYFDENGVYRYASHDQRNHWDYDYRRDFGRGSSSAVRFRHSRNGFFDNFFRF
T2 sequence (P13470 35-1455): as above

O=c1cc(-c2ccc(O)cc2)oc2cc(O)cc(O)c12 [apigenin, reference compound]
inhibition at 1000 µM [1, 4]: 38 ± 10%
inhibition at 3000 µM [1, 4]: 53 ± 6%
solubility [2]: insufficient solubility

Mixture of 4′-(12,12-bisphosphono-3,6,9-trioxadodecanoxy)-7,5-dihydroxyflavone and 7-(12,12-bisphosphono-3,6,9-trioxadodecanoxy)-4′,5-dihydroxyflavone [ApiBisPhos EG]
inhibition of GtfC enzyme activity by substance bound to hydroxyapatite [3]: inhibit the GtfC enzyme activity of S. mutans to a considerable degree

Mixture of 4′-(11,11-bisphosphonoundecanoxy)-7,5-dihydroxyflavone and 7-(11,11-bisphosphonoundecanoxy)-4′, 5-dihydroxyflavone [ApiBisPhos UD]
inhibition of glucosyltransferase C activity ([1]; 1 mM): 72±9%
remaining enzyme activity ([1]; 1 mM): less than 30%
inhibition of glucosyltransferase C activity ([1]; 3 mM): 90±4%
remaining enzyme activity ([1]; 3 mM): about 10%
inhibition of glucosyltransferase C activity ([1]; 6 mM): 99±2%
inhibition of GtfC enzyme activity by substance bound to hydroxyapatite [3]: inhibit the GtfC enzyme activity of S. mutans to a considerable degree
inhibition of biofilm formation on HAP surfaces (S. mutans biofilm): 26±9%
